Assay results from patent publication US5352665A, “Method of treating disease caused by the infection of virus” (Mitsui Toatsu Chemicals, Incorporated, priority 1987, dated 1994).
Square brackets hold non-standard residues; d marks the D form. Peptide text beside a SMILES is read from it. pGlu = O=C1CC[C@@H](C(=O)O)N1

What was measured:
[1] = tested on: REO virus type II; test: Jerne plaque assay (anti-SRBC hemolysis plaques) in new-born NC mice infected with REO virus; format: in vivo, mouse; settings: for PFC/10^6 spleen cells (number of hemolysis plaques): measured 4 days later; for therapeutic effect on immune inhibition (in words): administered together with SRBC to infected NC mice, LPS 5 μg/mouse, MDP 20 μg/mouse
Method: Two weeks after the infection of 10^5 PFU REO virus, sheep red blood cells (referred to hereinafter simply as SRBC) was intraperitoneally administered and 4 days after the administration, the number of hemolysis plaques was measured by way of Jerne plaque assay as a production amount of antibody-forming cells against SRBC. The number of hemolysis plaques was 15±2 per 10^6 spleen cells in a group not infected with REO virus, while that was 2.8±1.6 in an infected group, thus showing a remarkable immunity inhibitory state. In compliance with this, atrophy of thymus and decrease in the number of thymic cortex lymphocytes were observed.
On the other hand, the effective ingredient of this invention dissolved in physiological saline was administered in an amount of 10 μg/mouse simultaneously with SRBC to mice, and 4 days after the administration, the number of hemolysis plaques was measured whereupon the number was 22±5. […] In a group to which muramyl dipeptide was administered in an amount of 20 μg/mouse together with Freund incomplete adjuvant, the number of hemolysis plaques was 11±2.
Next, recovery of the immune function by immunity-enhancing substance was examined, using new-born mice infected with REO virus type II. Two weeks after the infection of the mice with the virus, sheep red blood cells were administered to the mice, and 4 days after the administration, Jerne plaque assay was carried out to measure the number of hemolysis plaques. The number was 15±2 in a group of the mice not infected and was 2.8±1.6 in a group of the infected mice. […] This recovery of the function of immune inhibition is tabulated as follows:
Mice infected with virus was immunized at the same time with SRBC and an immunostimulant, and 4 days after the immunization, the number of hemolysis plaques was measured by Jerne plaque assay.
After mice being infected with REO virus, 10 μg 1 μg or 0.1 μg of FTS was administered to the mice. After 18 days, inhibition of immunity and recovery of its function were observed by way of Jerne plaque assay.
Virus: REO virus type II, innoculation 1×10^5 PFU/mouse

[2] = Toxicity test, repeated subcutaneous administration to mice; format: in vivo, mouse
Text: (§1) Thus, the medicament of the present invention is a safe medicament of extremely low toxicity and can be administered for a long period of time.

[3] = Toxicity test, repeated subcutaneous administration to rats; format: in vivo, rat; settings: 30 mg/kg subcutaneously for consecutive 21 days
Text: as §1

Compound	PFC/10^6 spleen cells (number of hemolysis plaques) ([1]; MDP 20 μg/mouse with Freund incomplete adjuvant and SRBC 2 weeks after 10^5 PFU REO virus) [PFC/10^6 spleen cells]	PFC/10^6 spleen cells (number of hemolysis plaques) ([1]; MDP 20 μg/mouse with Freund incomplete adjuvant and SRBC 2 weeks after 10^5 PFU REO virus, listed as muramyl dipeptide) [PFC/10^6 spleen cells]	therapeutic effect on immune inhibition (in words) [1]	toxicity ([2]; 50 mg/kg and 100 mg/kg subcutaneously for consecutive 14 days, ddy male mice of 5 weeks old)	abnormal symptom by external check ([2]; 100 mg/kg subcutaneously every day for consecutive 14 days, mice)	abnormal symptom in external behavior observation, biochemical diagnosis of sera and pathological anatomy ([3]; rats)	toxicity ([3]; wister rats of 5 weeks old)	PFC/10^6 spleen cells (number of hemolysis plaques) ([1]; LPS 5 μg/mouse with SRBC 2 weeks after 10^5 PFU REO virus) [PFC/10^6 spleen cells]	PFC/10^6 spleen cells (number of hemolysis plaques) ([1]; LPS 5 μg/mouse with SRBC 2 weeks after 10^5 PFU REO virus, listed as lipopolysaccharide (LPS)) [PFC/10^6 spleen cells]
CC(=O)N[C@H]1C(O)O[C@H](CO)[C@@H](O)[C@@H]1O[C@H](C)C(=O)N[C@@H](C)C(=O)N[C@H](CCC(=O)O)C(N)=O (mixture of isomers) [MDP, muramyl dipeptide]	11 ± 2	11±2	showing a therapeutic effect						
C[C@H](NC(=O)[C@@H]1CCC(=O)N1)C(=O)N[C@@H](CCCCN)C(=O)N[C@@H](CO)C(=O)N[C@@H](CCC(N)=O)C(=O)NCC(=O)NCC(=O)N[C@@H](CO)C(=O)N[C@@H](CC(N)=O)C(=O)O [FTS, pGlu-Ala-Lys-Ser-Gln-Gly-Gly-Ser-Asn] ([pGlu]AKSQGGSN-OH)				No toxicity was observed	no abnormal symptom was found	no abnormal symptom was found	No toxicity was observed		
lipopolysaccharide [LPS]			no therapeutic effect					0.3 ± 0.4	0.3±0.4
